Laboratory results published in the supplement of paper PMC10307832.

Legend:
Test in all cases: relative viability (nuclei count vs DMSO), 5 days (fraction); higher = more cells survive
[1] = compound: C1=CC2=C(C=C(C(=C2N=C1)O)N=NC3=CC4=C(C=C3)C=C(C=C4)S(=O)(=O)O)S(=O)(=O)O + CC(=O)c1c(C)c2cnc(Nc3ccc(N4CCNCC4)cn3)nc2n(C2CCCC2)c1=O [Palbociclib] (partner 0.5 µM)
Outline: (§1)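 Relative viability is defined as nuclei in treated wells over nuclei in vehicle wells. Duplicate plates were run and medians reported. Lung cancer cell lines in 1536-well plates were dosed by pin tool one day after seeding, with one drug or with a fixed anchor-drug dose plus five library-drug doses (not always all listed) in √10 steps, and nuclei were counted after 5 days.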

AT-7519 + Pemetrexed = compound: O=C(NC1CCNCC1)c1n[nH]cc1NC(=O)c1c(Cl)cccc1Cl [AT-7519] + Nc1nc2[nH]cc(CCc3ccc(C(=O)N[C@@H](CCC(=O)O)C(=O)O)cc3)c2c(=O)[nH]1 [Pemetrexed] (partner 0.2 µM)
Outline: as §1

[2] = compound: C1=CC2=C(C=C(C(=C2N=C1)O)N=NC3=CC4=C(C=C3)C=C(C=C4)S(=O)(=O)O)S(=O)(=O)O + Cc1nc(NC(=O)N2CCC[C@H]2C(N)=O)sc1-c1ccnc(C(C)(C)C(F)(F)F)c1 [Alpelisib] (partner 2 µM)
Outline: as §1

AT-7519 + Pictilisib = compound: O=C(NC1CCNCC1)c1n[nH]cc1NC(=O)c1c(Cl)cccc1Cl [AT-7519] + CS(=O)(=O)N1CCN(Cc2cc3nc(-c4cccc5[nH]ncc45)nc(N4CCOCC4)c3s2)CC1 [Pictilisib] (partner 1 µM)
Outline: as §1

Cell Line	relative viability ([1]; first compound 0.253 µM)	relative viability ([1]; first compound 8 µM)	relative viability (AT-7519 + Pemetrexed; first compound 0.01 µM)	relative viability (AT-7519 + Pemetrexed; first compound 0.3162 µM)	relative viability (AT-7519 + Pemetrexed; first compound 1 µM)	relative viability ([1]; first compound 0.08 µM)	relative viability ([1]; first compound 0.8 µM)	relative viability ([1]; first compound 2.53 µM)	relative viability ([2]; first compound 0.08 µM)	relative viability ([2]; first compound 0.253 µM)	relative viability ([2]; first compound 0.8 µM)	relative viability ([2]; first compound 2.53 µM)	relative viability ([2]; first compound 8 µM)	relative viability (AT-7519 + Pictilisib; first compound 0.01 µM)	relative viability (AT-7519 + Pictilisib; first compound 0.03162 µM)	relative viability (AT-7519 + Pictilisib; first compound 0.3162 µM)	relative viability (AT-7519 + Pictilisib; first compound 1 µM)	relative viability (AT-7519 + Pemetrexed; first compound 0.03162 µM)
NCI-H1648	0.29	0.301	0.806	0.666	0.691	–	–	–	–	–	–	–	–	–	–	–	–	–
SK-MES-1	0.332	0.342	1.12	0.982	0.798	0.351	0.34	0.318	0.987	0.845	0.824	0.944	0.847	0.457	0.272	0.328	0.276	1.04
HCC-366	0.385	0.325	0.178	0.185	0.216	0.459	0.377	0.391	0.386	0.344	0.389	0.401	0.439	0.0989	0.152	0.111	0.123	0.162
201T	0.366	0.35	0.343	0.288	0.331	0.385	0.366	0.366	1.02	0.991	0.995	1.06	1.03	0.684	0.712	0.7	0.77	0.311
HCC-827	0.451	0.542	0.301	0.276	0.243	0.537	0.492	0.455	1.05	0.989	0.807	0.978	1.05	1.15	0.875	0.819	0.9	0.247
NCI-H647	0.404	0.37	0.142	0.177	0.129	0.413	0.386	0.387	1.32	1.19	1.11	1.17	0.984	0.452	0.531	0.483	0.356	0.159
NCI-H2023	0.395	0.309	0.203	0.203	0.111	0.451	0.391	0.421	0.606	0.671	0.636	0.564	0.624	0.25	0.24	0.207	0.172	0.233
NCI-H520	0.247	0.212	0.815	0.619	0.389	0.247	0.27	0.237	0.907	0.846	0.923	0.869	0.995	0.344	0.296	0.249	0.171	0.635
RERF-LC-KJ	1.13	1.01	0.448	0.414	0.303	1.31	1.11	1.06	0.907	0.842	0.795	0.818	0.843	0.514	0.452	0.594	0.136	0.473
A-427	0.547	0.482	1.06	1.07	1.01	0.525	0.512	0.541	1.19	1.07	1.09	1.08	1.17	0.711	0.713	0.574	0.253	0.965
NCI-H441	0.206	0.216	0.283	0.263	0.198	0.22	0.21	0.209	0.823	0.823	–	0.736	1.09	0.448	0.452	0.468	0.161	0.266
NCI-H1703	–	–	–	–	–	–	–	–	0.369	0.266	0.39	0.385	0.409	0.322	0.234	0.241	0.129	–
NCI-H1792	0.654	0.597	0.612	0.666	0.919	0.674	0.673	0.667	0.861	0.639	0.66	0.715	0.743	0.196	0.218	0.234	0.252	0.645
Calu-6	–	–	–	–	–	–	–	–	0.942	0.965	1.1	0.988	1.04	0.863	0.919	0.689	0.131	–
SK-LU-1	0.391	0.428	0.99	0.998	0.439	0.456	0.344	0.399	1.06	0.968	0.98	1.1	1.18	0.591	0.54	0.5	0.357	1
PC-3 [JPC-3]	0.566	0.565	1.05	1.11	1.47	0.572	0.528	0.577	1.11	1.02	0.971	1.04	0.998	0.779	0.751	0.688	0.694	1.1
EMC-BAC-2	0.541	0.537	0.464	0.438	0.514	0.528	0.509	0.519	0.8	0.75	0.711	0.766	0.696	0.56	0.524	0.506	0.538	0.442
LK-2	0.529	0.721	0.305	0.212	0.201	0.768	0.626	0.77	1.12	1.1	1.12	1.08	0.935	0.785	0.503	0.497	0.265	0.259
NCI-H2126	0.363	0.327	0.711	0.689	0.576	0.342	0.359	0.36	0.834	0.738	0.779	0.724	0.768	0.571	0.516	0.464	0.433	0.745
NCI-H3122	0.185	0.216	0.215	0.173	0.176	0.215	0.176	0.2	0.891	0.795	0.719	0.732	0.76	0.625	0.603	0.645	0.102	0.209
NCI-H1975	0.592	0.666	0.304	0.306	0.181	0.753	0.606	0.639	0.741	0.653	0.603	0.645	0.649	0.293	0.253	0.231	0.146	0.302

Cell Line	relative viability ([1]; first compound 0.253 µM)	relative viability ([1]; first compound 8 µM)	relative viability (AT-7519 + Pemetrexed; first compound 0.01 µM)	relative viability (AT-7519 + Pemetrexed; first compound 0.3162 µM)	relative viability (AT-7519 + Pemetrexed; first compound 1 µM)	relative viability ([1]; first compound 0.08 µM)	relative viability ([1]; first compound 0.8 µM)	relative viability ([1]; first compound 2.53 µM)	relative viability ([2]; first compound 0.08 µM)	relative viability ([2]; first compound 0.253 µM)	relative viability ([2]; first compound 0.8 µM)	relative viability ([2]; first compound 2.53 µM)	relative viability ([2]; first compound 8 µM)	relative viability (AT-7519 + Pictilisib; first compound 0.01 µM)	relative viability (AT-7519 + Pictilisib; first compound 0.03162 µM)	relative viability (AT-7519 + Pictilisib; first compound 0.3162 µM)	relative viability (AT-7519 + Pictilisib; first compound 1 µM)	relative viability (AT-7519 + Pemetrexed; first compound 0.03162 µM)
NCI-H1944	0.323	0.327	0.633	0.602	0.511	0.347	0.337	0.359	0.842	0.718	0.832	0.858	0.838	0.356	0.334	0.323	0.339	0.593
LU99A	0.43	0.42	0.215	0.165	0.198	0.472	0.381	0.435	0.608	0.488	0.422	0.582	0.514	0.365	0.307	0.283	0.251	0.199
SW 1573	0.41	0.0522	0.745	0.401	0.126	0.463	0.397	0.38	0.92	0.727	0.775	0.761	0.797	0.576	0.463	0.386	0.196	0.833
NCI-H2347	0.447	0.426	0.462	0.398	0.453	0.459	0.44	0.482	1.03	0.995	1.07	1.07	1.06	0.565	0.665	0.345	0.286	0.367
NCI-H2009	0.22	0.192	1.11	1.08	0.869	0.221	0.245	0.214	1.19	1.05	1.1	1.16	1.1	0.914	0.763	0.654	0.247	0.932
HCC-15	0.658	0.723	0.217	0.205	0.204	0.759	0.737	0.67	0.97	0.811	0.807	0.895	0.938	0.766	0.764	0.59	0.323	0.225
HCC-44	0.96	0.975	0.622	0.65	0.703	1.02	0.964	1.01	0.867	0.786	0.779	0.893	0.893	0.588	0.625	0.552	0.688	0.696
COR-L23	0.346	0.39	0.182	0.211	0.173	0.326	0.274	0.299	0.818	0.691	0.728	0.704	0.593	0.728	0.598	0.291	0.0899	0.184
NCI-H1299	–	–	–	–	–	–	–	–	0.985	1.04	1.01	0.997	1.05	0.865	0.738	0.507	0.127	–
NCI-H727	0.652	0.694	–	–	–	0.674	0.659	0.634	0.547	0.578	0.537	0.609	0.567	0.354	0.263	0.197	0.204	–
ABC-1	0.647	0.761	–	–	–	0.756	0.659	0.91	1.14	0.967	1.03	0.869	1.22	0.837	0.688	0.527	0.202	–
NCI-H1650	0.302	0.308	0.376	0.323	0.197	0.369	0.301	0.328	–	–	–	–	–	0.701	0.548	0.295	0.177	0.35
ChaGo-K-1	0.948	0.853	0.27	0.276	0.254	0.974	0.931	0.903	–	–	–	–	–	0.589	1.16	0.536	0.547	0.267
SW 900	0.58	0.579	0.453	0.452	0.478	0.53	0.477	0.648	–	–	–	–	–	–	–	–	–	0.425
NCI-H596	–	–	0.473	0.459	0.513	–	–	–	0.48	0.454	0.575	0.475	0.482	0.389	0.433	0.414	0.347	0.501
NCI-H1563	–	–	0.743	0.81	0.807	–	–	–	0.931	0.94	1.07	1.11	1.1	0.591	0.612	0.764	0.511	0.868
A549	–	–	–	–	–	–	–	–	0.733	0.708	0.665	0.728	0.662	0.463	0.466	0.421	0.0948	–
NCI-H2342	0.538	0.542	0.789	0.762	0.687	0.576	0.532	0.6	–	–	–	–	–	–	–	–	–	0.743
NCI-H522	0.981	0.923	0.992	1.03	0.929	0.957	0.934	0.849	–	–	–	–	–	–	–	–	–	0.943
IA-LM	–	–	–	–	–	–	–	–	0.85	0.561	0.751	0.965	0.832	0.31	0.328	0.191	0.0278	–
EBC-1	–	–	–	–	–	–	–	–	0.822	0.854	0.743	0.813	1.03	0.393	0.31	0.288	0.139	–
